Experimental data taken from the NIST ThermoML archive (doi:10.1016/j.fluid.2014.10.004).

Tests used:
[1] = 101.3 kPa, Liquid, Sing-around technique in a fixed-path interferometer
[2] = refractive index (Na D-line) (dimensionless); conditions: 101.33 kPa, Liquid, Standard Abbe refractometry
[3] = xn = mol fraction of the nth substance listed; conditions: 101.3 kPa, Liquid, Sing-around technique in a fixed-path interferometer
[4] = refractive index (Na D-line) (dimensionless); xn = mol fraction of the nth substance listed; conditions: 101.3 kPa, Liquid, Standard Abbe refractometry

CCCCCl [1-chlorobutane]
Conditions | refractive index, 298.15 K | refractive index, 308.15 K | refractive index, 318.15 K | speed of sound, 298.15 K [m/s] | speed of sound, 308.15 K [m/s] | speed of sound, 318.15 K [m/s]
[1] | – | – | – | 1119 | 1078 | 1037.3
[2] | 1.39953 | 1.39413 | 1.38851 | – | – | –

CCCCCCl [1-chloropentane]
Conditions | refractive index, 298.15 K | refractive index, 308.15 K | refractive index, 318.15 K | speed of sound, 298.15 K [m/s] | speed of sound, 308.15 K [m/s] | speed of sound, 318.15 K [m/s]
[1] | – | – | – | 1164.2 | 1124.9 | 1085.8
[2] | 1.41015 | 1.40501 | 1.39984 | – | – | –

ClCCCCl [1,3-dichloropropane]
Conditions | refractive index, 298.15 K | refractive index, 308.15 K | refractive index, 318.15 K | speed of sound, 298.15 K [m/s] | speed of sound, 308.15 K [m/s] | speed of sound, 318.15 K [m/s]
[1] | – | – | – | 1236.5 | 1199.7 | 1163.2
[2] | 1.44617 | 1.44123 | 1.43614 | – | – | –

CC(Cl)(Cl)Cl [1,1,1-trichloroethane]
Conditions | refractive index, 298.15 K | refractive index, 308.15 K | refractive index, 318.15 K | speed of sound, 298.15 K [m/s] | speed of sound, 308.15 K [m/s] | speed of sound, 318.15 K [m/s]
[1] | – | – | – | 962.94 | 928.68 | 894.71
[2] | 1.43492 | 1.42908 | 1.42311 | – | – | –

ClC(Cl)Cl [trichloromethane]
Conditions | refractive index, 298.15 K | refractive index, 308.15 K | refractive index, 318.15 K | speed of sound, 298.15 K [m/s] | speed of sound, 308.15 K [m/s] | speed of sound, 318.15 K [m/s]
[1] | – | – | – | 984.42 | 950.45 | 916.63
[2] | 1.44209 | 1.43598 | 1.42986 | – | – | –

ClCCCl [1,2-dichloroethane]
Conditions | refractive index, 298.15 K | refractive index, 308.15 K | refractive index, 318.15 K | speed of sound, 298.15 K [m/s] | speed of sound, 308.15 K [m/s] | speed of sound, 318.15 K [m/s]
[1] | – | – | – | 1194.4 | 1156.1 | 1117.8
[2] | 1.44206 | 1.43661 | 1.43109 | – | – | –

ClCCCCCl [1,4-dichlorobutane]
Conditions | refractive index, 298.15 K | refractive index, 308.15 K | refractive index, 318.15 K | speed of sound, 298.15 K [m/s] | speed of sound, 308.15 K [m/s] | speed of sound, 318.15 K [m/s]
[1] | – | – | – | 1286.6 | 1251 | 1215.7
[2] | 1.45224 | 1.44756 | 1.44279 | – | – | –

ClCCCl [1,2-dichloroethane] + C[N+](=O)[O-]
x1 = 1
Conditions | refractive index, 298.15 K | refractive index, 308.15 K | refractive index, 318.15 K | speed of sound, 298.15 K [m/s] | speed of sound, 308.15 K [m/s] | speed of sound, 318.15 K [m/s]
[3] | – | – | – | 1194.4 | 1156.1 | 1117.8
[4] | 1.44206 | 1.43661 | 1.43109 | – | – | –

C[N+](=O)[O-] [nitromethane] + CC(Cl)(Cl)Cl
x2 = 0
Conditions | refractive index, 298.15 K | refractive index, 308.15 K | refractive index, 318.15 K | speed of sound, 298.15 K [m/s] | speed of sound, 308.15 K [m/s] | speed of sound, 318.15 K [m/s]
[3] | – | – | – | 1321.6 | 1281.9 | 1242.5
[4] | 1.37949 | 1.37473 | 1.36995 | – | – | –

C[N+](=O)[O-] [nitromethane]
Conditions | refractive index, 298.15 K | refractive index, 308.15 K | refractive index, 318.15 K | speed of sound, 298.15 K | speed of sound, 308.15 K | speed of sound, 318.15 K
[1] | – | – | – | 1321.3 m/s [middle of 9 runs] | 1281.9 m/s [middle of 7 runs] | 1242.5 m/s [middle of 8 runs]
[2] | 1.37951 [middle of 8 runs] | 1.37473 [middle of 7 runs] | 1.37001 [middle of 7 runs] | – | – | –

C[N+](=O)[O-] [nitromethane] + ClCCCCCl
x2 = 0
Conditions | refractive index, 298.15 K | refractive index, 308.15 K | refractive index, 318.15 K | speed of sound, 298.15 K [m/s] | speed of sound, 308.15 K [m/s] | speed of sound, 318.15 K [m/s]
[3] | – | – | – | 1321.5 | 1281.9 | 1242.5
[4] | 1.37955 | 1.37482 | 1.37001 | – | – | –

CC(Cl)(Cl)Cl [1,1,1-trichloroethane] + C[N+](=O)[O-]
Conditions | refractive index, 298.15 K | refractive index, 308.15 K | refractive index, 318.15 K | speed of sound, 298.15 K [m/s] | speed of sound, 308.15 K [m/s] | speed of sound, 318.15 K [m/s]
[3], x1 = 0.0921 | – | – | – | 1258.6 | 1219.9 | 1181.4
[3], x1 = 0.1727 | – | – | – | 1211.5 | 1173.7 | 1136
[3], x1 = 0.2614 | – | – | – | 1166.3 | 1129.1 | 1092.1
[3], x1 = 0.3951 | – | – | – | 1109.8 | 1073.5 | 1037.3
[3], x1 = 0.4862 | – | – | – | 1079.3 | 1043.4 | 1007.6
[3], x1 = 0.5904 | – | – | – | 1048.7 | 1013.2 | 977.89
[3], x1 = 0.7066 | – | – | – | 1019.3 | 984.72 | 949.76
[3], x1 = 0.8358 | – | – | – | 992.76 | 957.84 | 923.21
[3], x1 = 0.9012 | – | – | – | 980.43 | 945.74 | 911.39
[3], x1 = 1 | – | – | – | 962.94 | 928.68 | 894.71
[4], x1 = 0.0921 | 1.38777 | 1.38231 | 1.37702 | – | – | –
[4], x1 = 0.1727 | 1.39427 | 1.38809 | 1.38239 | – | – | –
[4], x1 = 0.2614 | 1.4006 | 1.39442 | 1.3887 | – | – | –
[4], x1 = 0.3951 | 1.40894 | 1.40268 | 1.39695 | – | – | –
[4], x1 = 0.4862 | 1.41396 | 1.40768 | 1.40208 | – | – | –
[4], x1 = 0.5904 | 1.41903 | 1.41302 | 1.40727 | – | – | –
[4], x1 = 0.7066 | 1.42412 | 1.41834 | 1.41249 | – | – | –
[4], x1 = 0.8358 | 1.42923 | 1.42338 | 1.41753 | – | – | –
[4], x1 = 0.9012 | 1.43156 | 1.42575 | 1.41987 | – | – | –
[4], x1 = 1 | 1.43492 | 1.42908 | 1.42311 | – | – | –

ClC(Cl)C(Cl)Cl [1,1,2,2-tetrachloroethane]
Conditions | refractive index, 298.15 K | refractive index, 308.15 K | refractive index, 318.15 K | speed of sound, 298.15 K [m/s] | speed of sound, 308.15 K [m/s] | speed of sound, 318.15 K [m/s]
[1] | – | – | – | 1150.6 | 1118.7 | 1087
[2] | 1.49174 | 1.48654 | 1.48137 | – | – | –

ClC(Cl)Cl [trichloromethane] + C[N+](=O)[O-]
x1 = 1
Conditions | refractive index, 298.15 K | refractive index, 308.15 K | refractive index, 318.15 K | speed of sound, 298.15 K [m/s] | speed of sound, 308.15 K [m/s] | speed of sound, 318.15 K [m/s]
[3] | – | – | – | 984.42 | 950.45 | 916.63
[4] | 1.44209 | 1.43598 | 1.42986 | – | – | –
